Source: patent US4513009A, “Aminoacid derivatives and their therapeutic applications” (priority 1980, dated 1985)
Like-named read-outs stand apart in the source and are kept apart here. Values belong to the compound of their own block, whether it stands above or below them.

Columns and labels:
[1] = system: licking reflex of mice on a plate heated at 55° C.; assay: Hot-plate test (55° C.): specific antalgic effect; type: in vivo; details: intravenous; for ED50: Mus musculus, hot plate 55° C.
Procedure: (§1) Licking reflex of mice on a plate heated at 55° C. according to the method of Jacob. and co-workers (Arch. Int. Pharmacodyn. 122, 287-300, 1959: 133, 296-300, 1961).
(b) Specific antalgic effect

[2] = molecular target: enkephalinase (enkephalin dipeptidylcarboxypeptidase); assay: Determination of enkephalinasic (enkephalin dipeptidylcarboxypeptidasic) activity and effect of inhibitors, striatal membrane fraction, 3H-leucine-enkephalin; type: biochemical, rats or mice; details: 10 nM leucine-enkephalin 3H, 25° C., pH 7.4, 15 mn, read-out: 50% inhibitory concentration
Procedure: Determination of the "enkephalinasic" (enkephalin dipeptidylcarboxypeptidasic) activity and determination of the effect of inhibitors.
The enzyme preparation used is a membrane fraction from the striatum of rats or mice.
This fraction is obtained by homogenization at 4° C. in 20 volumes Tris-HCl buffer 0.05M (pH 7.4) followed by two successive centrifugations (1000 g×min. and 200,000 g×min.) at the end of which the sediment of the second centrifugation is retained. It is washed by re-suspension in 10 ml of the buffer followed by centrifugation (200,000 g×min) and the resulting sediment is in turn washed superficially to complete the removal of the soluble enzymes. The resulting membrane fraction is taken up into the buffer at 4° C., to obtain a suspension comprising about 1.5 mg proteins per ml.
An aliquot sample (50 μl) of the membrane suspension is then incubated in a final volume of 100 μl at 25° C. in the presence of 10 nM leucine-enkephalin ^3 H (39 Ci/mmole), previously purified by column chromatography over Porapak Q (100-120 mesh, Waters Assoc.) and […] puromycine, an aminopeptidase inhibitor. Incubation time is generally set at 15 mn. in order to determine the initial rate of the formation of tripeptide Tyr-Gly-Gly-^3 H characteristic of the enkephalin dipeptidylcarboxypeptidasic (enkephalinasic) activity.
Determination of the radioactivity of the tripeptide is effected by liquid scintillation spectrometry. […]

Tail of the mice = details: for potentiation of D Ala2 Met Enkephalin: compound i.v. 100 mg/kg, D Ala2 Met Enkephalin 15 minutes later, ivt, 10 to 30γ/mouse; for specific antalgic effect (tail withdrawal): i.v. 100 mg/kg
[3] = system: licking reflex of mice on a plate heated at 55° C.; assay: Hot-plate test (55° C.): potentiation of the antalgic effect of D Ala2 Met Enkephalin and Naloxone antagonism; type: in vivo; details: for % Increase of the licking time with respect to the animals treated with D Ala2 Met Enkephalin (1): dosage 10 α/mouse; for Potentiation of the effect of a subactive dosage of D Ala2 Met Enkephalin: 0.3γ D Ala2 Met Enkephalin
Procedure: as §1
(a) Potentiation of the antalgic effect of D Ala2 Met Enkephalin
(α) By the intraventricular route (ivt)
(β) By the intravenous route

blood-pressure = assay: Hypotensive activity; type: in vivo, dogs; details: Canis lupus familiaris; intravenous administration; read-out: lowest dosage producing a decrease of the blood-pressure
From the text: enkephalin-potentiating activity, (LAUBIE M., SCHMITT H., VINCENT M., REMON D. Central cardiovascular effects of Morphinometric peptids in dogs. European Journal of Pharmacology, Vol. 46, 67-71, 1977).

[4] = system: phenylbenzoquinone-induced pain; assay: Phenylbenzoquinone or writhing test; type: in vivo; details: 0.7 mg/kg i.v.; vs controls p<0.01
From the text: 3--Phenylbenzoquinone or "writhing test" according to the method of SIEGMUND and co-workers (Proc. Soc. Expert. Biol. Med. 1957, 95, 729-731).

[5] = ivt, + D Ala2 Met Enkephalin 0.3 α/mouse

Compound: COC(=O)CNC(=O)C(CSC(C)=O)Cc1ccccc1 (racemic) [Compound 19, N-[(RS)-3-acetylthio-2-benzyl-propionyl]glycine methyl ester]
ED50 [1]: 30 mg/kg
antalgic effect in the hot (55° C.) plate test [1]: have an antalgic effect

Compound: O=C(O)CNC(=O)C(CS)Cc1ccccc1 (racemic) [Compound 20, N-[(R,S)-3-mercapto-2-benzyl-propionyl]glycine]
IC50 [2]: 5 nM
Increase reaction time (%) (Tail of the mice; 30 mg/kg i.v. + D Ala2 Met Enkephalin (15 γ ivt), 20 mn): 247%
Increase reaction time (%) (Tail of the mice; 30 mg/kg i.v. + D Ala2 Met Enkephalin (15 γ ivt), 45 mn): 353%
Increase reaction time (%) (Tail of the mice; 30 mg/kg i.v. + D Ala2 Met Enkephalin (15 γ ivt), 60 mn): 283%
Increase reaction time (%) (Tail of the mice; 30 mg/kg i.v. + D Ala2 Met Enkephalin (15 γ ivt), 90 mn): 210%
Increase reaction time (%) (Tail of the mice; 30 mg/kg i.v. + D Ala2 Met Enkephalin (15 γ ivt), 120 mn): 203%
Increase reaction time (%) (Tail of the mice; 100 mg/kg i.v. + D Ala2 Met Enkephalin (15 γ ivt), 20 mn): 239%
Increase reaction time (%) (Tail of the mice; 100 mg/kg i.v. + D Ala2 Met Enkephalin (15 γ ivt), 45 mn): 528%
Increase reaction time (%) (Tail of the mice; 100 mg/kg i.v. + D Ala2 Met Enkephalin (15 γ ivt), 60 mn): 321%
Increase reaction time (%) (Tail of the mice; 100 mg/kg i.v. + D Ala2 Met Enkephalin (15 γ ivt), 90 mn): 382%
Increase reaction time (%) (Tail of the mice; 100 mg/kg i.v. + D Ala2 Met Enkephalin (15 γ ivt), 120 mn): 322%
Increase reaction time (%) (Tail of the mice; 100 mg/kg i.v. alone, 20 mn): 59%
Increase reaction time (%) (Tail of the mice; 100 mg/kg i.v. alone, 45 mn): 196%
Increase reaction time (%) (Tail of the mice; 100 mg/kg i.v. alone, 60 mn): 150%
Increase reaction time (%) (Tail of the mice; 100 mg/kg i.v. alone, 90 mn): 88%
Increase reaction time (%) (Tail of the mice; 100 mg/kg i.v. alone, 120 mn): 85%
potentiation of D Ala2 Met Enkephalin (Tail of the mice): potentiate most significantly
specific antalgic effect (tail withdrawal) (Tail of the mice): exhibit a specific antalgic affect

Compound: CC(C)C[C@H](NC(=O)[C@H](Cc1ccccc1)NCC(=O)O)C(=O)O [Compound 2, N-(carboxy-methyl)L.phenylalanine-L.leucine]
IC50 [2]: 1500 nM
% Increase of the licking time with respect to the animals treated with D Ala2 Met Enkephalin (1) [3, 5]: 274%
Potentiation of the effect of a subactive dosage of D Ala2 Met Enkephalin ([3]; ivt): significantly potentiated (p≤0.05)

Compound: CC(C)C[C@H](NC(=O)C(CS)Cc1ccccc1)C(=O)O (stereo partly drawn) [Compound 18, N[(R,S)3-mercapto-2-benzyl-propionyl]-L.leucine]
minimal effective dose (blood-pressure): 0.3 mg/kg
Increase reaction time (%) (Tail of the mice; 100 mg/kg i.v. + D Ala2 Met Enkephalin (30 γ ivt), 20 mn): 0%
Increase reaction time (%) (Tail of the mice; 100 mg/kg i.v. + D Ala2 Met Enkephalin (30 γ ivt), 45 mn): 280%
Increase reaction time (%) (Tail of the mice; 100 mg/kg i.v. + D Ala2 Met Enkephalin (30 γ ivt), 60 mn): 166%
Increase reaction time (%) (Tail of the mice; 100 mg/kg i.v. + D Ala2 Met Enkephalin (30 γ ivt), 90 mn): 87%
Increase reaction time (%) (Tail of the mice; 100 mg/kg i.v. + D Ala2 Met Enkephalin (30 γ ivt), 120 mn): 174%
Increase reaction time (%) (Tail of the mice; 100 mg/kg i.v. alone, 20 mn): 38%
Increase reaction time (%) (Tail of the mice; 100 mg/kg i.v. alone, 45 mn): 80%
Increase reaction time (%) (Tail of the mice; 100 mg/kg i.v. alone, 60 mn): 120%
Increase reaction time (%) (Tail of the mice; 100 mg/kg i.v. alone, 90 mn): 61%
Increase reaction time (%) (Tail of the mice; 100 mg/kg i.v. alone, 120 mn): 90%
potentiation of D Ala2 Met Enkephalin (Tail of the mice): potentiate most significantly
specific antalgic effect (tail withdrawal) (Tail of the mice): exhibit a specific antalgic affect

Compound: CC(C)C[C@H](NC(=O)[C@@H](S)Cc1ccccc1)C(=O)O [Compound 28, N-[(S)-2-mercapto-3-phenyl-propionyl]-L.leucine]
% Increase of the licking time with respect to the animals treated with D Ala2 Met Enkephalin (1) [3, 5]: 400%
Potentiation of the effect of a subactive dosage of D Ala2 Met Enkephalin ([3]; ivt): significantly potentiated (p≤0.05)

Compound: COC(=O)[C@H](CC(C)C)NC(=O)[C@H](Cc1ccccc1)SC(C)=O [Compound 29, N-[(S)-2-acetylthio-3-phenyl-propionyl]-L.leucine methyl ester]
% Increase of the licking time with respect to the animals treated with D Ala2 Met Enkephalin (1) [3, 5]: 207%
Potentiation of the effect of a subactive dosage of D Ala2 Met Enkephalin ([3]; ivt): significantly potentiated (p≤0.05)

Compound: CC(C)C[C@H](NC(=O)[C@H](Cc1ccccc1)SCCS)C(=O)O [Compound 35, N-[(S)-2-mercapto-ethylthio-3-phenyl-propionyl]-L.leucine]
IC50 [2]: 400 nM
increase of the licking time with respect to the animals treated with D Ala2 Met Enkephalin ([3]; compound i.v. 100 mg/kg, D Ala2 Met Enkephalin 0.3γ intraventricular): 100%
% Increase of the licking time with respect to the animals treated with D Ala2 Met Enkephalin (1) [3, 5]: 240%
% Increase of the licking time with respect to the animals treated with D Ala2 Met Enkephalin (1) ([3]; ivt, + D Ala2 Met Enkephalin 0.3 α/mouse + Naloxone 10 mg/kg s.c.): 18%
Potentiation of the effect of a subactive dosage of D Ala2 Met Enkephalin ([3]; ivt): significantly potentiated (p≤0.05)

Compound: C=CCN1CC[C@]23c4c5ccc(O)c4O[C@H]2C(=O)CC[C@@]3(O)[C@H]1C5 [Naloxone, reference compound]
antagonism of the potentiated antalgic effect by Naloxone ([3]; ivt, compounds + D Ala2 Met Enkephalin): this effect is antagonized by Naloxone

Compound: D Ala2 Met Enkephalin [reference compound]
activity of D Ala2 Met Enkephalin per se ([3]; 0.3 α/mouse, ivt): inactive per se

More lines, main results first:

IC50 [2]: 20000 nM
Compound: CC(C)C[C@H](NC(=O)[C@@H](Cc1ccccc1)NCC(=O)O)C(=O)O [Compound 5, N-(carboxy-methyl)-D.phenylalanine-L.leucine]

IC50 [2]: 5000 nM
Compound: CC(C)C[C@H](NC(=O)[C@H](Cc1ccccc1)SC(=O)c1ccccc1)C(=O)O [Compound 27, N-[(S)-2-benzoylthio-3-phenyl-propionyl]-L.leucine]

IC50 [2]: 100 nM
Compound: C[C@H](NC(=O)[C@@H](S)Cc1ccccc1)C(=O)O [Compound 32, N-[(S)-2-mercapto-3-phenyl-propionyl]-L.alanine]

IC50 [2]: 1000 nM
Compound: CC(=O)SCS[C@@H](Cc1ccccc1)C(=O)N[C@@H](CC(C)C)C(=O)O [Compound 33, N-[(S)-2-acetylthiomethylthio-3-phenyl-propionyl]-L.leucine]

IC50 [2]: 260 nM
Compound: CC(=O)SCC(Cc1ccccc1)C(=O)NCC(=O)OCc1ccc(F)cc1 (centres unmarked) [Compound 54, N-[3-Acetylthio-2-benzylpropanoyl]glycine(p.fluoro)-benzylester]
ED50 [1]: 3 mg/kg
antalgic effect in the hot (55° C.) plate test [1]: have an antalgic effect
protection from phenylbenzoquinone-induced pain [4]: protect the treated animals from phenylbenzoquinone-induced pain, with a significant difference with respect to the controls, p<0.01

IC50 [2]: 350 nM
Compound: CC(=O)SCC(Cc1ccccc1)C(=O)NCC(=O)OCC(F)(F)F (centres unmarked) [Compound 55, N-[3-Acetylthio-2-benzylpropanoyl]-glycine-2,2,2-trifluoroethyl ester]

IC50 [2]: 400 nM
Compound: CC(=O)SCC(Cc1ccccc1)C(=O)NCC(=O)NCc1ccccc1 (centres unmarked) [Compound 56, N-[3-Acetylthio-2-benzylpropanoyl]glycine benzylamide]

IC50 [2]: 7.8 nM
Compound: O=C(CNC(=O)C(CS)Cc1ccccc1)OCc1ccccc1 (centres unmarked) [Compound 57, N-[3-Mercapto-2-benzyl-propanoyl]glycine benzyl ester]

IC50 [2]: 30 nM
Compound: O=C(CNC(=O)C(CS)Cc1ccccc1)NCc1ccccc1 (centres unmarked) [Compound 60, N-[3-Mercapto-2-benzyl-propanoyl]glycine benzylamide]
